Patent publication US10301272B2, “Carboxamide or sulfonamide substituted thiazoles and related derivatives as modulators for the orphan nuclear receptor ROR[γ]” (Phenex Pharmaceuticals AG, priority 2012, dated 2019)
Where two headings read alike, the source gives them in different places.

Key:
[1] = biological target: RORγ ligand binding domain (LBD) (Homo sapiens (Human), UniProt P51449); experiment: TR-FRET Activity Assay (ligand sensing assay, LANCE); settings: for pIC50 (FRET): TR-FRET, interaction of RORγ-LBD with coactivator peptide
Text: The ligand-binding domain (LBD) of RORγ was expressed as fusion protein with GST in BL-21 (BL3) cells using the vector pDEST15. Cells were lysed by lysozyme-treatment and sonication, and the fusion proteins purified over glutathione sepharose (Pharmacia) according to the manufacturers instructions. For screening of compounds for their influence on the RORγ-peptide interaction, the LANCE technology (Perkin Elmer) was applied. This method relies on the binding dependent energy transfer from a donor to an acceptor fluorophor attached to the binding partner of interest. For ease of handling and reduction of background from compound fluorescence LANCE technology makes use of generic fluorophore labels and time resolved detection assays were done in a final volume of 25 μL in a 384 well plate, in a Tris-based buffer system (20 mM Tris-HCl pH 6.8; 60 mM KCl, 1 mM DTT; 5 mM MgCl2; 35 ng/μL BSA), containing 20-60 ng/well recombinantly expressed RORγ-LBD fused to GST, 200-600 nM N-terminally biotinylated peptide, 200 ng/well Streptavidin-xlAPC conjugate (Prozyme) and 6-10 ng/well Eu W1024-antiGST (Perkin Elmer). DMSO content of the samples was kept at 1%.
After generation of the Tris-based buffer system, the potentially RORγ modulating ligands were diluted. […] The LANCE signal was detected by a Perkin Elmer EnVision™ Multilabel Counter. […] Ligands that promote the complex formation induce a concentration-dependent increase in time-resolved fluorescent signal.
Y is the response. Y starts at Bottom and goes to Top with a sigmoidal shape.
This is identical to the “four parameter logistic equation”. The IC50 values are calculated using this equation.

[2] = biological target: RORγ (Homo sapiens, UniProt P51449); experiment: RORγ Gal4 Reporter Gene Assay; format: cell-based
Method in brief: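 Cells at 5×10^5/well were transfected with RORγ fragments fused to the GAL4 DNA-binding domain (CMV promoter), a 5×GAL4-site firefly luciferase reporter and CMV-Renilla luciferase for normalization. About 4 h later serum-free MEM and compound were added (vehicle ≤0.1%). Cultures at 37 °C, 5% CO2; at least triplicates.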

[3] = firefly (FF) luciferase, 293T cells

Chain of RORγ ligand binding domain (LBD) (P51449 269-508): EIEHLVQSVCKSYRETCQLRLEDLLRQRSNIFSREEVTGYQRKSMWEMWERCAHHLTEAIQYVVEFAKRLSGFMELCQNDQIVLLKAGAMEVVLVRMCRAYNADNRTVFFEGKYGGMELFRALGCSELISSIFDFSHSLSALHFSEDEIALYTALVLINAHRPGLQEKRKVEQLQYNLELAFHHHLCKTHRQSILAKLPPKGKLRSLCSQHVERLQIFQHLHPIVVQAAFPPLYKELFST
Chain of RORγ (P51449 whole entry, looked up, the tested form may be a part): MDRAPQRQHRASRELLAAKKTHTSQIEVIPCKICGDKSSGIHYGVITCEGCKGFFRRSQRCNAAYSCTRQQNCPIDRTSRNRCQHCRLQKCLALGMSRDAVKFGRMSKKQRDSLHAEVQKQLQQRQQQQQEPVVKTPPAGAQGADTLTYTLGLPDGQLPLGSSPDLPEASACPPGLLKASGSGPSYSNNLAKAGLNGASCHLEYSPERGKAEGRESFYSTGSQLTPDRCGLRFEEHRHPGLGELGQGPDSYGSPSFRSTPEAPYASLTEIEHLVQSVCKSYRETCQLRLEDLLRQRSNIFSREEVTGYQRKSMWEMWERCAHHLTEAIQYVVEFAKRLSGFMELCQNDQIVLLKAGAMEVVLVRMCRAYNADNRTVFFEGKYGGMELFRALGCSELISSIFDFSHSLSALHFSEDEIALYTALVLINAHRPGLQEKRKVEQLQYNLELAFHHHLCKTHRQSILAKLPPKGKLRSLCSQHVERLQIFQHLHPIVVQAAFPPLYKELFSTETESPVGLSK

Compound | pIC50 (FRET) [1] | pIC50 (FF) [2] | pIC50 (REN) [2] | IC50 [1] | pIC50 (FF) [2, 3] | pIC50 (REN) ([2]; renilla normalised (RENnorm) luciferase, 293T cells) | IC50 ([2]; firefly (FF) luciferase, 293T cells, read-out: pIC50 (FF) (converted)) | IC50 ([2]; renilla normalised (RENnorm) luciferase, 293T cells, read-out: pIC50 (REN) (converted))
CC(C)(CNC(=O)c1nc(CC2CCCCC2)c(-c2cc(C(C)(C)C)cc(C3(C)CC3)c2)o1)C(=O)O [100/19] | 5.9/6.6/6.6 | 5.9/6.6/6.6 | 5.9/6.6/6.6 | – | – | – | – | –
CC(C)(C)NS(=O)(=O)c1ccc(-c2sc(C(=O)NCC3(C(N)=O)CCOCC3)nc2CC2CCCCC2)cc1C(C)(C)C [Example 6/1] | 6.5/7.5/7.7 | 6.5/7.5/7.7 | 6.5/7.5/7.7 | – | – | – | – | –
CC(C)(C)NS(=O)(=O)c1ccc(-c2oc(C(=O)NC3CCOCC3)nc2CC2CCCCC2)cc1C(C)(C)C [Example 100/1] | 5.9/6.3/6.3 | 5.9/6.3/6.3 | 5.9/6.3/6.3 | – | – | – | – | –
Cc1c(C(=O)NC(C)(C)C)cc(-c2sc(C(=O)N[C@H]3C[C@H](C(=O)O)C3)nc2CC2CCCCC2)cc1C1(C)CC1 [19/7] | 5.8/6.8/6.8 | 5.8/6.8/6.8 | 5.8/6.8/6.8 | – | – | – | – | –
CC(C)(C)NS(=O)(=O)c1ccc(-c2oc(C(=O)N[C@H]3C[C@H](C(=O)O)C3)nc2CC2CCCCC2)cc1C(C)(C)C [100/2] | 5.5/6.4/6.3 | 5.5/6.4/6.3 | 5.5/6.4/6.3 | – | – | – | – | –
CC(C)(C)NS(=O)(=O)c1ccc(-c2sc(NS(C)(=O)=O)nc2CC2CCCCC2)cc1C(F)(F)F [Example 201, N-(tert-Butyl)-4-(4-(cyclohexylmethyl)-2-(methylsulfonamido)thiazol-5-yl)-2-(trifluoromethyl)benzenesulfonamide] | 6.0/6.5/6.6 | 6.0/6.5/6.6 | 6.0/6.5/6.6 | – | – | – | – | –
CC(C)(C)c1cc(-c2sc(C(=O)N[C@H]3C[C@H](C(=O)O)C3)nc2CC2CCCCC2)cc(C(C)(F)F)c1 [7/18] | 6.4/7.4/7.4 | 6.4/7.4/7.4 | 6.4/7.4/7.4 | – | – | – | – | –
CC(C)(O)CNC(=O)c1nc(CC2CCCCC2)c(-c2ncc(S(=O)(=O)NC(C)(C)C)c3ccccc23)s1 [19/6] | 6.4/7.7/7.7 | 6.4/7.7/7.7 | 6.4/7.7/7.7 | – | – | – | – | –
CC(C)(C)NS(=O)(=O)c1ccc(-c2sc(C(=O)NC3CSC3)nc2CC2CCCCC2)cc1C(C)(C)O [6/24] | 7.3/7.9/8.0 | 7.3/7.9/8.0 | 7.3/7.9/8.0 | – | – | – | – | –
CC(C)(O)CNC(=O)c1nc(CC2CCC2)c(-c2ccc(S(=O)(=O)NC(C)(C)C)c3ccccc23)s1 [21/2] | 6.8/8.4/8.5 | 6.8/8.4/8.5 | 6.8/8.4/8.5 | – | – | – | – | –
CC(C)(C)NS(=O)(=O)c1ccc(-c2sc(C(=O)NC3CSC3)nc2CC2CCCCC2)c(Cl)c1Cl [6/30] | 7.2/8.7/8.7 | 7.2/8.7/8.7 | 7.2/8.7/8.7 | – | – | – | – | –
CC(C)(C)c1cc(-c2sc(C(=O)N[C@H]3C[C@H](C(=O)O)C3)nc2CC2CCCCC2)cc(C(C)(C)O)c1 [Example 23, (trans)-3-(5-(3-(tert-Butyl)-5-(2-hydroxypropan-2-yl)phenyl)-4-(cyclohexylmethyl)-thiazole-2-carboxamido)cyclobutanecarboxylic acid] | – | – | – | 631 nM | 8.2 | – | – | –
COC(c1nc(C(=O)NC2CCOCC2)sc1-c1cc(C(C)(C)C)cc(C2(C)CC2)c1)C1CCCCC1 (centres unmarked) [19/3] | 6.8/7.1/7.1 | 6.8/7.1/7.1 | 6.8/7.1/7.1 | – | – | – | – | –
CC(C)(C)NS(=O)(=O)c1ccc(-c2sc(C(=O)NC3CCOCC3)nc2CC2CCCCC2)cc1C(C)(C)O [6/22] | 6.8/7.7/7.7 | 6.8/7.7/7.7 | 6.8/7.7/7.7 | – | – | – | – | –
CC(C)(C)NS(=O)(=O)c1ccc(-c2sc(C(=O)NC3C[S+]([O-])C3)nc2CC2CCCCC2)c(Cl)c1Cl (centres unmarked) [15/5] | 6.9/8.5/8.4 | 6.9/8.5/8.4 | 6.9/8.5/8.4 | – | – | – | – | –
CC1(c2cc(-c3sc(C(=O)N[C@H]4C[C@H](C(=O)O)C4)nc3CC3CCCCC3)cc(C(F)(F)F)c2)CC1 [9/8] | 6.5/7.1/7.1 | 6.5/7.1/7.1 | 6.5/7.1/7.1 | – | – | – | – | –

Compound | pIC50 (FRET) [1] | pIC50 (FF) [2] | pIC50 (REN) [2] | IC50 [1] | pIC50 (FF) [2, 3] | pIC50 (REN) ([2]; renilla normalised (RENnorm) luciferase, 293T cells) | IC50 ([2]; firefly (FF) luciferase, 293T cells, read-out: pIC50 (FF) (converted)) | IC50 ([2]; renilla normalised (RENnorm) luciferase, 293T cells, read-out: pIC50 (REN) (converted))
CC(C)(C)NS(=O)(=O)c1ccc(-c2sc(C(=O)NC3CC3)nc2CC2CCCCC2)c(Cl)c1Cl [6/31] | 7.3/8.0/8.0 | 7.3/8.0/8.0 | 7.3/8.0/8.0 | – | – | – | – | –
CC(C)(C)c1cc(-c2sc(C(=O)N[C@H]3C[C@H](C(=O)O)C3)[n+]([O-])c2CC2CCCCC2)cc(C(C)(C)C)n1 [Example 22, 2-(((trans)-3-Carboxycyclobutyl)carbamoyl)-4-(cyclohexylmethyl)-5-(2,6-di-tert-butylpyridin-4-yl)thiazole 3-oxide] | – | – | – | 398 nM | 7.1 | 7.1 | – | –
CC(C)(C)NS(=O)(=O)c1ccc(-c2oc(C(=O)N[C@H]3C[C@H](C(=O)O)C3)nc2CC2CCCCC2)c(Cl)c1Cl [100/17] | 6.1/7.1/7.0 | 6.1/7.1/7.0 | 6.1/7.1/7.0 | – | – | – | – | –
CC(C)(C)NS(=O)(=O)c1ccc(-c2sc(C(=O)N[C@H]3C[C@H](C(=O)O)C3)nc2CC2CCCCC2)cc1C(C)(C)O [7/17] | 6.5/8.0/8.0 | 6.5/8.0/8.0 | 6.5/8.0/8.0 | – | – | – | – | –
CC(C)(C)NS(=O)(=O)c1ccc(-c2sc(C(=O)NCCN3CCOCC3)nc2CC2CCCCC2)cc1C(C)(C)O [6/25] | 5.8/6.7/6.7 | 5.8/6.7/6.7 | 5.8/6.7/6.7 | – | – | – | – | –
CSc1cnc(CNC(=O)c2nc(CC3CCCCC3)c(-c3ccc(S(=O)(=O)NC(C)(C)C)c(Cl)c3Cl)s2)s1 [6/40] | 7.0/8.2/8.3 | 7.0/8.2/8.3 | 7.0/8.2/8.3 | – | – | – | – | –
COC(=O)C(C)(C)CCNC(=O)c1nc(CC2CCCCC2)c(-c2cc(C(C)(C)C)cc(C3(C)CC3)c2)s1 [Example 6, Methyl 4-(5-(3-(tert-butyl)-5-(1-methylcyclopropyl)phenyl)-4-(cyclohexylmethyl)thiazole-2-carboxamido)-2,2-dimethylbutanoate] | 6.7/6.2/6.3 | 6.7/6.2/6.3 | 6.7/6.2/6.3 | – | – | – | – | –
O=C(N[C@H]1C[C@H](C(=O)O)C1)c1nc(CC2CCCCC2)c(-c2ccc(OCC(F)(F)F)c3ccccc23)s1 [7/22] | – | – | – | > 20000 nM | – | – | 316 nM | 631 nM
CC1(C)COCCN1Cc1ccc(-c2sc(C(=O)NC3CCS(=O)(=O)CC3)nc2CC2CCCCC2)c2ccccc12 [7/26] | 6.8/7.7/7.9 | 6.8/7.7/7.9 | 6.8/7.7/7.9 | – | – | – | – | –
CC(C)(C)NS(=O)(=O)c1ccc(-c2sc(C(=O)NC3CCS(=O)(=O)CC3)nc2Cc2ccccc2)c2ccccc12 [Example 300, 4-Benzyl-5-(4-(N-(tert-butyl)sulfamoyl)naphthalen-1-yl)-N-(1,1-dioxidotetrahydro-2H-thiopyran-4-yl)thiazole-2-carboxamide] | 7.1/8.2/8.4 | 7.1/8.2/8.4 | 7.1/8.2/8.4 | – | – | – | – | –
CC(C)(C)NS(=O)(=O)c1ccc(-c2sc(C(=O)N[C@H]3C[C@H](C(=O)O)C3)nc2CC2CCCCC2)c(F)c1C(F)F [7/15] | 6.7/8.7/8.5 | 6.7/8.7/8.5 | 6.7/8.7/8.5 | – | – | – | – | –
CC(C)(C)NS(=O)(=O)c1ccc(-c2sc(C(=O)NC3C[S+]([O-])C3)nc2CC2CCCCC2)cc1C(C)(C)O (centres unmarked) [15/2] | 6.6/7.3/7.3 | 6.6/7.3/7.3 | 6.6/7.3/7.3 | – | – | – | – | –
CC(C)(C)NS(=O)(=O)c1ccc(-c2oc(C(=O)NC3CCC(C)(C(=O)O)CC3)nc2CC2CCCCC2)c2ccccc12 (centres unmarked) [100/22] | 5.9/6.8/7.0 | 5.9/6.8/7.0 | 5.9/6.8/7.0 | – | – | – | – | –
CC(C)(C)NS(=O)(=O)c1ccc(-c2oc(C(=O)NC3CCS(=O)(=O)CC3)nc2CC2CCC2)c2ccccc12 [Example 104, 5-(4-(N-(tert-Butyl)sulfamoyl)naphthalen-1-yl)-4-(cyclobutylmethyl)-N-(1,1-dioxidotetrahydro-2H-thiopyran-4-yl)oxazole-2-carboxamide] | 6.6/7.5/7.9 | 6.6/7.5/7.9 | 6.6/7.5/7.9 | – | – | – | – | –
CC(C)(C)NS(=O)(=O)c1ccc(-c2nc(C(=O)NC34CCC(C(=O)O)(CC3)CC4)oc2CC2CCCCC2)c2ccccc12 [Example 103/1] | 6.2/7.4/7.4 | 6.2/7.4/7.4 | 6.2/7.4/7.4 | – | – | – | – | –
